How the values were obtained:
[1] = test system: HCl-EtOH-induced gastric lesions; assay: HCl-EtOH-induced gastric lesion model in mice; type: in vivo
Experimental: 3.5. HCl-EtOH-Induced Ulcer Model in Mice
The gastroprotective activity of the compounds was assessed in the EtOH-HCl-induced gastric lesion model. Male Swiss albino mice weighing 30 ± 3 g were used. The animals were fed on certified Champion diet with free access to water under standard conditions of 12 h dark-light period, 50% relative humidity, and 22 °C room temperature. The mice were randomly distributed into groups of 7–14 animals each and fasted for 24 h with free access to water before the oral administration of test samples by gavage. The purity of the tested compounds was higher than 95% by NMR analysis. To keep the animal numbers to a minimum, dose-response studies were performed with lapachol at 5, 10 and 50 mg/kg to set the conditions for single-dose comparison of gastroprotective effect. The tested compounds, lansoprazole (20 mg/kg) or the vehicle (12% Tween 80, 10 mL/kg) were administered orally by gavage. After 50 min, all groups were orally treated with 0.2 mL of a solution containing 60% EtOH-0.3 M HCl for gastric lesion induction. Animals were sacrificed by cervical dislocation 1 h after the administration of EtOH-HCl, and the stomachs excised and inflated by injection of 5% formalin (1 mL). The ulcerated stomachs were fixed in 5% formalin for 30 min and opened along the greater curvature. The length (mm) of each lesion was measured, and the lesion index expressed as the sum of the length of all lesions. Based on previous studies on the parent diterpenes, comparison of the new compounds 1–12 was carried out at a single oral dose of 5 mg/kg. The protocols were approved by the Universidad de Talca Institutional Animal Care and Use Committee, which follows the recommendations of the Canadian Council on Animal Care. Tween 80 and lansoprazole (>98% purity by HPLC) were purchased from Sigma-Aldrich.
Results were expressed as the mean ± SEM. In all experiments, statistical differences between several treatments and their respective control were determined by one-way ANOVA with Student-Newman-Keuls post-hoc test. The level of significance was set at P < 0.05.

MRC-5 fibroblasts = assay: Basal cytotoxicity, neutral red uptake assay, MRC-5; type: cell-based; conditions: Homo sapiens, MRC5, MRC-5, confluent cultures, 24 h, read-out: IC50 ± SEM, Fibroblasts
Experimental: (§1) 3.6. Cytotoxicity Assay
(§2) The human cell lines MRC-5 normal lung fibroblasts (ATCC CCL-171), AGS gastric adenocarcinoma cells (ATCC CRL-1739), and Hep G2 hepatocellular carcinoma cells (ATCC HB-8065) were obtained from the American Type Culture Collection (ATCC, Manassas, VA, USA). The cells were grown as monolayers in the following media: MRC-5 and Hep G2 in minimum essential Eagle’s medium (MEM), with Earle’s salts, 2.0 mM L-glutamine (Sigma Chemical Co.) and 2.2 g/L sodium bicarbonate (Sigma Chemical Co.), supplemented with 10% heat-inactivated fetal bovine serum (FBS), 100 IU/mL penicillin, and 100 µg/mL streptomycin in a humidified incubator with 5% CO2 in air at 37 °C. Cell passage was maintained between 10 and 16 for MRC-5 and between 79 and 82 for Hep G2 cells. The medium was changed every 2 days. Culture media, antibiotics, and FBS were obtained from Invitrogen Corp. Human gastric adenocarcinoma cells AGS (ATCC CRL-1739) were grown as monolayers in Ham F-12 medium containing 1.0 mM L-glutamine and 1.5 g/L sodium bicarbonate, supplemented with 10% heat-inactivated FBS, 100 IU/mL penicillin, and 100 µg/mL streptomycin in a humidified incubator with 5% CO2 in air at 37 °C. Cell passage was maintained between 42 and 48. The medium was changed every 2 days.
(§3) Confluent cultures of the different cell lines were treated with medium containing the compounds at concentrations ranging from 1 up to 1,000 µM. The antisecretory drug lansoprazole was used as reference compound. The substances were first dissolved in DMSO and then in the corresponding culture medium supplemented with 2% FBS. The final concentration of DMSO in the test medium and controls was 1%. The cells were exposed for 24 h to test medium with or without the compound (control). Each concentration was tested in quadruplicate together with the control and repeated three times in separate experiments. At the end of the incubation the neutral red uptake assay was performed.

AGS cells = assay: Basal cytotoxicity, neutral red uptake assay, AGS; type: cell-based; conditions: Homo sapiens, confluent cultures, 24 h, read-out: IC50 ± SEM, AGS
Experimental: as §1, §2, §3

Hep G2 cells = assay: Basal cytotoxicity, neutral red uptake assay, Hep G2; type: cell-based; conditions: Homo sapiens, HepG2, Hep G2, confluent cultures, 24 h, read-out: IC50 ± SEM, Hep G2
Experimental: as §1, §2, §3

[2] = Basal cytotoxicity, cell lines not separated in the text; type: cell-based; conditions: human; stated in text without cell line
Experimental: as §1
The human cell lines MRC-5 normal lung fibroblasts (ATCC CCL-171), AGS gastric adenocarcinoma cells (ATCC CRL-1739), and Hep G2 hepatocellular carcinoma cells (ATCC HB-8065) were obtained from the American Type Culture Collection (ATCC, Manassas, VA, USA). The cells were grown as monolayers in the following media: MRC-5 and Hep G2 in minimum essential Eagle’s medium (MEM), with Earle’s salts, 2.0 mM L-glutamine (Sigma Chemical Co.) and 2.2 g/L sodium bicarbonate (Sigma Chemical Co.), supplemented with 10% heat-inactivated fetal bovine serum (FBS), 100 IU/mL penicillin, and 100 µg/mL streptomycin in a humidified incubator with 5% CO2 in air at 37 °C. Cell passage was maintained between 10 and 16 for MRC-5 and between 79 and 82 for Hep G2 cells. The medium was changed every 2 days. Culture media, antibiotics, and FBS were obtained from Invitrogen Corp. Human gastric adenocarcinoma cells AGS (ATCC CRL-1739) were grown as monolayers in Ham F-12 medium containing 1.0 mM L-glutamine and 1.5 g/L sodium bicarbonate, supplemented with 10% heat-inactivated FBS, 100 IU/mL penicillin, and 100 µg/mL streptomycin in a humidified incubator with 5% CO2 in air at 37 °C. Cell passage was maintained between 42 and 48. The medium was changed every 2 days. […]

[3] = Mus musculus, 1 h, mice, single oral dose of 5 mg/kg, read-out: Protected stomachs (number of stomachs completely protected from any visible bleeding) (converted)
[4] = Mus musculus, 1 h, mice, single oral dose of 5 mg/kg, read-out: Protection (%)
[5] = mice, single oral dose of 5 mg/kg

Row | SMILES | responders at 5 mg/kg [1, 3] [%] | inhibition in vivo at 5 mg/kg [1, 4] [%] | Lesion index (mm) Mean ± SEM [1, 5] [mm] | IC50 (MRC-5 fibroblasts) [µM] | IC50 (AGS cells) [µM] | IC50 (Hep G2 cells) [µM] | IC50 at 24 h [2] [µM] | responders at 20 mg/kg ([1]; Mus musculus, 1 h, mice, oral, 20 mg/kg, read-out: Protected stomachs (number of stomachs completely protected from any visible bleeding) (converted)) [%] | inhibition in vivo at 20 mg/kg ([1]; Mus musculus, 1 h, mice, oral, 20 mg/kg, read-out: Protection (%)) [%] | Lesion index (mm) Mean ± SEM ([1]; mice, oral, 20 mg/kg) [mm] | Gastroprotective effect compared with the vehicle control (Tween 80) ([1]; mice, 5, 10 and 50 mg/kg, data not shown)
1 | C=C1CCC2[C@](C)(CCC[C@]2(C)C(=O)O)[C@H]1CC[C@@H](C)CC(=O)OC1=C(CCC(C)C)C(=O)c2ccccc2C1=O (stereo partly shown) [Compound 3, Dihydroprenyl lapachoyl junicedrate] | 0 | 59 | 17.9 ± 4.6 | 156 ± 9 | 89 ± 5 | > 1000 | – | – | – | – | –
2 | COc1cc([C@@H]2c3cc4c(cc3[C@@H](O[C@@H]3O[C@@H]5CO[C@@H](C)O[C@H]5[C@H](O)[C@H]3O)[C@H]3COC(=O)[C@H]23)OCO4)cc(OC)c1O [Etoposide, reference compound] | – | – | – | – | 0.58 ± 0.02 | – | – | – | – | – | –
3 | CC(C)=CCC1=C(OC(=O)C[C@H](C)CCC2=C(C)CCC3[C@@](C)(C(=O)O)CCC[C@]23C)C(=O)c2ccccc2C1=O (stereo partly shown) [Compound 7, Lapachoyl Δ8(9) junicedrate] | 12.5 | 54 | 11.5 ± 4.4 | 190 ± 8 | 179 ± 9 | 96 ± 9 | – | – | – | – | –
4 | COC(=O)[C@@]1(C)CCC[C@]2(C)C(CC[C@@H](C)CC(=O)OC3=C(CC=C(C)C)C(=O)c4ccccc4C3=O)[C@@H](C)CCC21 (stereo partly drawn) [Compound 12, Lapachoyl 17β-dihydrojunicedrate methyl ester] | 0 | – | 27.4 ± 6.8 | 926 ± 35 | 323 ± 16 | 290 ± 9 | – | – | – | – | –
5 | C=C1CCC2[C@](C)(CCC[C@]2(C)C(=O)OC)[C@H]1CC[C@@H](C)CC(=O)OC1=C(CCC(C)C)C(=O)C2=C(CCCC2)C1=O (stereo partly shown) [Compound 6, Dihydroprenyl-5,6,7,8-tetrahydrolapachoyl junicedrate methyl ester] | 37.5 | 74 | 6.5 ± 2.7 | > 1000 | > 1000 | > 1000 | > 1000 | – | – | – | –
6 | C=C1CCC2[C@](C)(CCC[C@]2(C)C(=O)OC)[C@H]1CC[C@@H](C)CC(=O)OC1=C(CC=C(C)C)C(=O)c2ccccc2C1=O (stereo partly shown) [Compound 2, Lapachoyl junicedrate methyl ester] | 44.4 | 65 | 8.7 ± 3.9 | 741 ± 40 | 361 ± 19 | 208 ± 11 | – | – | – | – | –
7 | Cc1c(OCC(F)(F)F)ccnc1C[S+]([O-])c1nc2ccccc2[nH]1 (stereo not shown) [Lansoprazole, lansoprazole, reference compound] | – | – | – | 306 ± 11 | 162 ± 6 | 221 ± 9 | – | 66.7 | 73 | 9.4 ± 1.2 | –
8 | COC(=O)[C@@]1(C)CCC[C@]2(C)C(CC[C@@H](C)CC(=O)OC3=C(CCC(C)C)C(=O)c4ccccc4C3=O)=C(C)CCC12 (stereo partly shown) [Compound 10, Dihydroprenyl lapachoyl Δ8(9) junicedrate methyl ester] | 33.3 | 76 | 10.2 ± 3.5 | > 1000 | 162 ± 10 | > 1000 | – | – | – | – | –
9 | CC(C)=CCC1=C(O)C(=O)c2ccccc2C1=O [Lapachol (IV), 2-hydroxy-3-(3-methyl-2-butenyl)-[1,4]-naphthoquinone, reference compound] | – | – | – | > 1000 | 382 ± 15 | 55 ± 3 | – | – | – | – | did not present a statistically significant effect
10 | C=C1CCC2[C@](C)(CCC[C@]2(C)C(=O)O)[C@H]1CC[C@@H](C)CC(=O)OC1=C(CC=C(C)C)C(=O)c2ccccc2C1=O (stereo partly shown) [Compound 1, Lapachoyl junicedrate] | – | 44 | 15.3 ± 5.0 | 210 ± 13 | 170 ± 9 | 57.4 ± 4.4 | – | – | – | – | –
11 | CC1=C(CC[C@@H](C)CC(=O)OC2=C(CCC(C)C)C(=O)c3ccccc3C2=O)[C@@]2(C)CCC[C@](C)(C(=O)O)C2CC1 (stereo partly shown) [Compound 9, Dihydroprenyl lapachoyl Δ8(9) junicedrate] | 0 | 64 | 15.7 ± 4.5 | 341 ± 17 | 294 ± 15 | > 1000 | – | – | – | – | –
12 | CC(C)=CCC1=C(OC(=O)C[C@H](C)CCC2[C@@H](C)CCC3[C@]2(C)CCC[C@]3(C)C(=O)O)C(=O)c2ccccc2C1=O (stereo partly drawn) [Compound 11, Lapachoyl 17β-dihydrojunicedrate] | 0 | 6 | 23.5 ± 3.6 | 336 ± 15 | 114 ± 7 | 54.5 ± 5 | – | – | – | – | –
13 | C=C1CCC2[C@](C)(CCC[C@]2(C)C(=O)O)[C@H]1CC[C@@H](C)CC(=O)OC1=C(CCC(C)C)C(=O)C2=C(CCCC2)C1=O (stereo partly shown) [Compound 5, Dihydroprenyl-5,6,7,8-tetrahydrolapachoyl junicedrate] | 0 | 18 | 20.4 ± 3.6 | 69 ± 3 | 40 ± 6 | 27 ± 1 | – | – | – | – | –
14 | C=C1CCC2[C@](C)(CCC[C@]2(C)C(=O)OC)[C@H]1CC[C@@H](C)CC(=O)OC1=C(CCC(C)C)C(=O)c2ccccc2C1=O (stereo partly shown) [Compound 4, Dihydroprenyl lapachoyl junicedrate methyl ester] | 0 | 55 | 19.3 ± 5.0 | > 1000 | 382 ± 26 | > 1000 | – | – | – | – | –
15 | COC(=O)[C@@]1(C)CCC[C@]2(C)C(CC[C@@H](C)CC(=O)OC3=C(CC=C(C)C)C(=O)c4ccccc4C3=O)=C(C)CCC12 (stereo partly shown) [Compound 8, Lapachoyl Δ8(9) junicedrate methyl ester] | 55.6 | 84 | 3.9 ± 1.9 | > 1000 | 721 ± 35 | 379 ± 21 | – | – | – | – | –
16 | C=C1CCC2[C@](C)(CCC[C@]2(C)C(=O)O)[C@H]1CC[C@@H](C)CC(=O)O (stereo partly shown) [Junicedric acid (I), junicedric acid, reference compound] | – | – | – | 181 ± 9 | 304 ± 18 | > 1000 | – | – | – | – | –
17 | CC1=C(CC[C@@H](C)CC(=O)O)[C@@]2(C)CCC[C@](C)(C(=O)O)C2CC1 (stereo partly shown) [Δ8(9) junicedric acid (II), Δ8(9) Junicedric acid, reference compound] | 44.4 | 79 | 5.3 ± 2.4 | 214 ± 32 | 343 ± 22 | > 1000 | – | – | – | – | –

— publication PMC6264310, “Synthesis and Pharmacological Activity of Diterpenylnaphthoquinone Derivatives” (Molecules, 2011)
